{"source": "patent US9801901B2", "about": "“Alginate oligomers for use in overcoming multidrug resistance in bacteria” (priority 2009, dated 2017)", "key": {"[1]": {"test_system": "PA01 Pseudomonas aeruginosa ATCC 15692", "assay": "MIC assay, two-fold antibiotic dilutions in CAMHB with alginate oligomer, no visible growth", "format": "cell-based"}, "[2]": {"test_system": "Pseudomonas aeruginosa ATCC 39324, mucoid type strain (R79)", "assay": "MIC assay, CAMHB with alginate oligomer, no visible growth", "format": "cell-based"}, "[3]": {"test_system": "Pseudomonas aeruginosa CFA 24-1, clinical mucoid strain (R80)", "assay": "MIC assay, CAMHB with alginate oligomer, no visible growth", "format": "cell-based"}, "[4]": {"test_system": "Pseudomonas aeruginosa MDR R22 from China (V1)", "assay": "MIC assay, CAMHB with alginate oligomer, no visible growth", "format": "cell-based", "conditions": "Pseudomonas aeruginosa, Table 1, V1 MDR R22 PA", "excerpt": "(§1) The study described in Example 1 was repeated with the following strains of bacteria and antibiotics as detailed in Tables 4, 5 and 6."}, "[5]": {"test_system": "Pseudomonas aeruginosa MDR 301 from Poland (V2)", "assay": "MIC assay, CAMHB with alginate oligomer, no visible growth", "format": "cell-based", "conditions": "Pseudomonas aeruginosa, Table 1, V2 MDR 301 PA"}, "[6]": {"test_system": "Klebsiella pneumoniae KP05 506 from India (V3)", "assay": "MIC assay, CAMHB with alginate oligomer, no visible growth", "format": "cell-based", "conditions": "for MIC: Klebsiella pneumoniae, Table 1, V3 KP05 506"}, "[7]": {"test_system": "Acinetobacter baumannii MDR ACB from Libya (V4)", "assay": "MIC assay, CAMHB with alginate oligomer, no visible growth", "format": "cell-based", "excerpt": "as §1\nThe study described in Example 1 was repeated with the following strains of Acinetobacter baumannii, antibiotics and M-block alginate oligomer in place of OligoG CF-5/20 as detailed in Table 7. The M-block oligomer is 100% M with a DPn of 15 to 18,"}, "[8]": {"test_system": "V9 (Egypt) Acinetobacter baumannii", "assay": "MIC assay, CAMHB with alginate oligomer, no visible growth", "format": "cell-based"}, "[9]": {"test_system": "V10 (Egypt) Acinetobacter lwoffii", "assay": "MIC assay, CAMHB with alginate oligomer, no visible growth", "format": "cell-based"}, "V11 5702 (Wales) E. coli": {"test_system": "V11 5702 (Wales) E. coli", "assay": "MIC assay, CAMHB with alginate oligomer, no visible growth", "format": "cell-based"}, "[10]": {"test_system": "V12 5725 (Wales) Klebsiella pneumoniae", "assay": "MIC assay, CAMHB with alginate oligomer, no visible growth", "format": "cell-based"}, "V22 6056 Acinetobacter": {"test_system": "V22 6056 Acinetobacter", "assay": "MIC assay, CAMHB with alginate oligomer, no visible growth", "format": "cell-based, Acinetobacter lwoffii"}, "[11]": {"test_system": "V23 1322 Burkholderia cepacia", "assay": "MIC assay, CAMHB with alginate oligomer, no visible growth", "format": "cell-based", "conditions": "Table 6, V23"}, "MDR Pseudomonas strains": {"test_system": "MDR Pseudomonas strains", "assay": "MIC assay of Example 1, summary over the MDR Pseudomonas strains", "format": "cell-based, Pseudomonas aeruginosa"}, "[12]": {"test_system": "MDR strains of Pseudomonas aeruginosa, Klebsiella pneumoniae, Burkholderia cepacia, Acinetobacter lwoffii, Acinetobacter baumannii and E. coli", "assay": "MIC assay of Example 2, summary over the strains of Tables 4, 5 and 6", "format": "cell-based", "conditions": "Example 2, Tables 4, 5 and 6"}}, "note": "Marks after values point to notes of the source that are not given here."}
{"compound": "CC1(C)C[C@@H]1C(=O)N/C(=C\\CCCCSC[C@H](N)C(=O)O)C(=O)O", "note": "[Primaxin, Imipenem/cilastatin]", "values": [{"measurement": "MIC", "setting": "[1]; Pseudomonas aeruginosa, ATCC15692", "result": "< 1", "unit": "µg/mL"}, {"measurement": "MIC", "setting": "[1]; Table 1, PA01, OligoCF-5/20 +2% G", "result": "<1", "unit": "µg/mL"}, {"measurement": "MIC", "setting": "[1]; Table 1, PA01, OligoCF-5/20 +6% G", "result": "<1", "unit": "µg/mL"}, {"measurement": "MIC", "setting": "[1]; Table 1, PA01, OligoCF-5/20 +10% G", "result": "<1", "unit": "µg/mL"}, {"measurement": "MIC", "setting": "[2]; Pseudomonas aeruginosa, ATCC39324", "result": "< 1", "unit": "µg/mL"}, {"measurement": "MIC", "setting": "[2]; Table 1, R79, OligoCF-5/20 +2% G", "result": "<1", "unit": "µg/mL"}, {"measurement": "MIC", "setting": "[2]; Table 1, R79, OligoCF-5/20 +6% G", "result": "<1", "unit": "µg/mL"}, {"measurement": "MIC", "setting": "[2]; Table 1, R79, OligoCF-5/20 +10% G", "result": "<1", "unit": "µg/mL"}, {"measurement": "MIC", "setting": "[3]; Pseudomonas aeruginosa", "result": "< 1", "unit": "µg/mL"}, {"measurement": "MIC", "setting": "[3]; Table 1, R80, OligoCF-5/20 +2% G", "result": "<1", "unit": "µg/mL"}, {"measurement": "MIC", "setting": "[3]; Table 1, R80, OligoCF-5/20 +6% G", "result": "<1", "unit": "µg/mL"}, {"measurement": "MIC", "setting": "[3]; Table 1, R80, OligoCF-5/20 +10% G", "result": "<1", "unit": "µg/mL"}, {"measurement": "MIC", "setting": "[4]; OligoCF-5/20 0G", "result": 128, "unit": "µg/mL"}, {"measurement": "MIC", "setting": "[4]; OligoCF-5/20 +2% G", "result": 128, "unit": "µg/mL"}, {"measurement": "MIC", "setting": "[4]; OligoCF-5/20 +6% G", "result": 64, "unit": "µg/mL"}, {"measurement": "MIC", "setting": "[4]; OligoCF-5/20 +10% G", "result": 32, "unit": "µg/mL"}, {"measurement": "MIC", "setting": "[5]; OligoCF-5/20 0G", "result": 512, "unit": "µg/mL"}, {"measurement": "MIC", "setting": "[5]; OligoCF-5/20 +2% G", "result": 256, "unit": "µg/mL"}, {"measurement": "MIC", "setting": "[5]; OligoCF-5/20 +6% G", "result": 256, "unit": "µg/mL"}, {"measurement": "MIC", "setting": "[5]; OligoCF-5/20 +10% G", "result": 128, "unit": "µg/mL"}, {"measurement": "effectiveness in conjunction with alginate oligomers", "setting": "[6]; Example 1, KP05 506", "result": "inconclusive"}, {"measurement": "MIC", "setting": "[6]; OligoCF-5/20 0G", "result": 32, "unit": "µg/mL"}, {"measurement": "MIC", "setting": "[6]; OligoCF-5/20 +2% G", "result": 64, "unit": "µg/mL"}, {"measurement": "MIC", "setting": "[6]; OligoCF-5/20 +6% G", "result": 64, "unit": "µg/mL"}, {"measurement": "MIC", "setting": "[6]; OligoCF-5/20 +10% G", "result": 64, "unit": "µg/mL"}, {"measurement": "MIC", "setting": "[7]; Acinetobacter baumannii", "result": "< 1", "unit": "µg/mL"}, {"measurement": "MIC", "setting": "[7]; Table 1, V4 ACB (Libya), OligoCF-5/20 +2% G", "result": "<1", "unit": "µg/mL"}, {"measurement": "MIC", "setting": "[7]; Table 1, V4 ACB (Libya), OligoCF-5/20 +6% G", "result": "<1", "unit": "µg/mL"}, {"measurement": "MIC", "setting": "[7]; Table 1, V4 ACB (Libya), OligoCF-5/20 +10% G", "result": "<1", "unit": "µg/mL"}, {"measurement": "MIC", "setting": "[8]; Acinetobacter baumannii", "result": 1, "unit": "µg/mL"}, {"measurement": "MIC", "setting": "[8]; Table 5, V9 MDR Acin. baum, OligoCF-5/20 +2% G", "result": 2, "unit": "µg/mL"}, {"measurement": "MIC", "setting": "[8]; Table 5, V9 MDR Acin. baum, OligoCF-5/20 +6% G", "result": "<0.5^† μg/ml"}, {"measurement": "MIC", "setting": "[8]; Table 5, V9 MDR Acin. baum, OligoCF-5/20 +10% G", "result": "<0.5^† μg/ml"}, {"measurement": "MIC", "setting": "[9]; Acinetobacter lwoffii", "result": "< 0.5", "unit": "µg/mL"}, {"measurement": "MIC", "setting": "[9]; Table 5, V10 MDR Acin. lwoff, OligoCF-5/20 +2% G", "result": "<0.5", "unit": "µg/mL"}, {"measurement": "MIC", "setting": "[9]; Table 5, V10 MDR Acin. lwoff, OligoCF-5/20 +6% G", "result": "<0.5", "unit": "µg/mL"}, {"measurement": "MIC", "setting": "[9]; Table 5, V10 MDR Acin. lwoff, OligoCF-5/20 +10% G", "result": "<0.5", "unit": "µg/mL"}, {"measurement": "MIC", "setting": "V11 5702 (Wales) E. coli; Escherichia coli", "result": "< 0.5", "unit": "µg/mL"}, {"measurement": "MIC", "setting": "V11 5702 (Wales) E. coli; Table 5, V11 MDR E.coli, OligoCF-5/20 +2% G", "result": "<0.5", "unit": "µg/mL"}, {"measurement": "MIC", "setting": "V11 5702 (Wales) E. coli; Table 5, V11 MDR E.coli, OligoCF-5/20 +6% G", "result": "<0.5", "unit": "µg/mL"}, {"measurement": "MIC", "setting": "V11 5702 (Wales) E. coli; Table 5, V11 MDR E.coli, OligoCF-5/20 +10% G", "result": "<0.5", "unit": "µg/mL"}, {"measurement": "MIC", "setting": "[10]; Klebsiella pneumoniae", "result": "< 0.5", "unit": "µg/mL"}, {"measurement": "MIC", "setting": "[10]; Table 5, V12 MDR Kleb pneu, OligoCF-5/20 +2% G", "result": "<0.5", "unit": "µg/mL"}, {"measurement": "MIC", "setting": "[10]; Table 5, V12 MDR Kleb pneu, OligoCF-5/20 +6% G", "result": "<0.5", "unit": "µg/mL"}, {"measurement": "MIC", "setting": "[10]; Table 5, V12 MDR Kleb pneu, OligoCF-5/20 +10% G", "result": "<0.5", "unit": "µg/mL"}, {"measurement": "MIC", "setting": "V22 6056 Acinetobacter; Acinetobacter", "result": 8, "unit": "µg/mL"}, {"measurement": "MIC", "setting": "V22 6056 Acinetobacter; Table 5, V22 MDR Acin. lwoff, OligoCF-5/20 +2% G", "result": 8, "unit": "µg/mL"}, {"measurement": "MIC", "setting": "V22 6056 Acinetobacter; Table 5, V22 MDR Acin. lwoff, OligoCF-5/20 +6% G", "result": 8, "unit": "µg/mL"}, {"measurement": "MIC", "setting": "V22 6056 Acinetobacter; Table 5, V22 MDR Acin. lwoff, OligoCF-5/20 +10% G", "result": "4^† μg/ml"}, {"measurement": "MIC", "setting": "[11]; Burkholderia cepacia, Experiment 1 (18-03-10), OligoCF-5/20 0G", "result": 128, "unit": "µg/mL"}, {"measurement": "MIC", "setting": "[11]; Burkholderia cepacia, Experiment 2 (18-03-10), OligoCF-5/20 0G", "result": 256, "unit": "µg/mL"}, {"measurement": "MIC", "setting": "[11]; Burkholderia cepacia, Experiment 3 (19-03-10), OligoCF-5/20 0G", "result": 256, "unit": "µg/mL"}, {"measurement": "MIC", "setting": "[11]; Experiment 1 (18-03-10), OligoCF-5/20 +2% G", "result": 128, "unit": "µg/mL"}, {"measurement": "MIC", "setting": "[11]; Experiment 1 (18-03-10), OligoCF-5/20 +6% G", "result": "64^† μg/ml"}, {"measurement": "MIC", "setting": "[11]; Experiment 1 (18-03-10), OligoCF-5/20 +10% G", "result": "32^† μg/ml"}, {"measurement": "MIC", "setting": "[11]; Experiment 2 (18-03-10), OligoCF-5/20 +2% G", "result": "128^† μg/ml"}, {"measurement": "MIC", "setting": "[11]; Experiment 2 (18-03-10), OligoCF-5/20 +6% G", "result": "128^† μg/ml"}, {"measurement": "MIC", "setting": "[11]; Experiment 2 (18-03-10), OligoCF-5/20 +10% G", "result": "64^† μg/ml"}, {"measurement": "MIC", "setting": "[11]; Experiment 3 (19-03-10), OligoCF-5/20 +2% G", "result": 256, "unit": "µg/mL"}, {"measurement": "MIC", "setting": "[11]; Experiment 3 (19-03-10), OligoCF-5/20 +6% G", "result": 256, "unit": "µg/mL"}, {"measurement": "MIC", "setting": "[11]; Experiment 3 (19-03-10), OligoCF-5/20 +10% G", "result": "128^† μg/ml"}, {"measurement": "effectiveness when used in combination with the alginate oligomers", "setting": "MDR Pseudomonas strains", "result": "more effective"}, {"measurement": "change of MIC with increasing amounts of OligoG CF-5/20", "setting": "[12]", "result": "decreasing MICs"}]}
